Test results reported in US20250051324A1, “PARP INHIBITOR, PHARMACEUTICAL COMPOSITION COMPRISING SAME, AND USE THEREOF” (KEYTHERA (SUZHOU) BIO-PHARMACEUTICALS CO., LIMITED, priority 2021, published 2025).
pIC50: −log10 of the molar value.

Assays:
PARP2 = PARP2 (Homo sapiens (Human), UniProt Q9UGN5); test: PARP2 trapping assay; assay type: biochemical; details: read-out: Inhibitory Effect on PARP2 Trapping IC50
Method: [table] […] 1. A 4× enzyme reaction mixture, comprising PARP1, PARP2, and GST-Tb antibody, was prepared with the buffer and 4 μL of the enzyme reaction mixture was added to a 384-well plate. 2. A 4×PARP1 and PARP2 probe reaction mixture was prepared with the buffer and 4 μL of the probe reaction mixture was added to the 384-well plate. 3. A series of gradient-diluted compounds were prepared and 4 μL of the diluted compounds were added to the 384-well plate, and incubated at room temperature for 45 minutes. 4. After incubation, 4 μL of 4×NAD reaction mixture was added to the 384-well plate and incubated at room temperature for 10 minutes. 5. After incubation, the plate was read using a plate reader. 6. Data Analysis: The percentage inhibition rate was calculated as follows: Inhibition Rate (%)=(Reading of Compound Group−Reading of Blank Group)/(Reading of Vehicle Control Group−Reading of Blank Group).

[1] = system: UWB1.289 ovarian cancer cells; test: Cell proliferation assay, UWB1.289; assay type: cell-based; details: UWB1289, 168 h, read-out: UWB1.289 Cell IC50
Method: Experimental Materials: MDA-MB-436 or UWB1.289 cell lines were purchased from Cobioer Biosciences Co. Ltd. (Nanjing, China). The STR identification results were a complete match, and mycoplasma testing was negative. MDA-MB-436 cells were cultured in DMEM complete medium containing 10% fetal bovine serum, 1% penicillin-streptomycin, 1% insulin, and 16 μg/mL glutathione; UWB1.289 cells were cultured in RMPI1640 complete medium containing 10% fetal bovine serum and 1% penicillin-streptomycin.
1. MDA-MB-436 or UWB1.289 cells were cultured in the aforementioned medium (culture conditions: 37° C., 5.0% CO2 in air) until they reached the logarithmic growth phase. The cells were then digested with trypsin containing 0.25% EDTA, centrifuged at 1000 rpm, and the supernatant was discarded. Cell culture medium was added, and the cell suspension was adjusted to 2×10^4/mL after counting. 135 μL of the cell suspension per well was taken and cultured in a 96-well cell culture plate for 16 hours (culture conditions: 37° C., 5.0% CO2 in air).
2. The test compounds, stored at a concentration of 10 mM, were diluted 2.5 times with DMSO and then serially diluted in a 1:3 gradient (9 gradients). The gradient-diluted samples were further diluted 40 times with serum-free medium, and 15 μL of each was added to the 96-well cell culture plate. The positive control group received serum-free medium containing the same concentration of DMSO, and the negative control group received medium without cells. The cells were then cultured for an additional 7 days.
3. After the culture period, the cell culture plate was placed at room temperature for 30 minutes. Then, 100 μL of CellCounting-Lite 2.0 reagent (Vazyme, #DD1101) was added to each well, mixed thoroughly, and incubated in the dark at room temperature for 10 minutes. The luminescence signal was read using a Synergy HTX multi-mode reader.
4. Data analysis was performed using GraphPad Prism 8.0 software. The inhibition rate (%) was calculated as 100*(average luminescence signal of the positive control group−luminescence signal of the compound)/(average luminescence signal of the positive control group−average luminescence signal of the negative control group). The IC50 value was obtained by plotting the logarithm of the compound concentration against the percentage inhibition rate.

[2] = Evaluation of pharmacokinetics in rats; assay type: in vivo; details: male, SD, rat, plasma, 1 mg/kg, oral gavage (PO, 1 mpk)
Description: Test Animals: 6-8 Week Old Male SD Rats
Food was restored two hours after dosing.

Sequence of PARP2 (Q9UGN5 whole entry): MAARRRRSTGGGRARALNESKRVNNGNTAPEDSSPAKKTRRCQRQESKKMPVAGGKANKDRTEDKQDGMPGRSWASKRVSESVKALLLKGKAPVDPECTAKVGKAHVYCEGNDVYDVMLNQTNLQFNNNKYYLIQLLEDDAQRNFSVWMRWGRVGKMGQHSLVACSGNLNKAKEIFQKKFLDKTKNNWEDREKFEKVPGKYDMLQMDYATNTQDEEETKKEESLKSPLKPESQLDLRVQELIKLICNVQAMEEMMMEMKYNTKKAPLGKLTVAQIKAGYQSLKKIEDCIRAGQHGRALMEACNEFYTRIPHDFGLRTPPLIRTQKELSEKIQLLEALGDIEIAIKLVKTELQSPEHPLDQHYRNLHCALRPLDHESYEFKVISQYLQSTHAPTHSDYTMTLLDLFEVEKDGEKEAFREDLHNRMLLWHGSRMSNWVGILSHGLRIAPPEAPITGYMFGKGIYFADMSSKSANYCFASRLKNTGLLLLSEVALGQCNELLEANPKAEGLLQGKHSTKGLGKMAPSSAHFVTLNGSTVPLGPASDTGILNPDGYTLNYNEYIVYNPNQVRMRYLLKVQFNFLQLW

CNC(=O)c1ccc(N2CCN(Cc3cnc4c(C)c(C(F)(F)F)c(=O)[nH]c4c3)CC2)cn1 [Compound 1, N-methyl-5-(4-((8-methyl-6-oxo-7-(trifluoromethyl)-5,6-dihydro-1,5-naphthyridin-3-yl)methyl)piperazin-1-yl)picolinamide]
pIC50 (PARP2): 6.78
pIC50 [1]: 9.18
AUC(0-inf) [2]: 11300 ng·h/mL
Cmax [2]: 1740 ng/mL
half-life [2]: 4.33 h
